Assay [1] concerns the target T1, Endoribonuclease toxin MazF (Escherichia coli K-12, UniProt P0AE70). Put plainly: MazF toxin RNase activators, dose response, biochemical, fluorescence, single-stranded RNA substrate, uHTS hits (AID 588481). Type of assay: functional.
Assay [2] deals with T1, Endoribonuclease toxin MazF. Put plainly: fluorescent RNA oligo signal without MazF, dose response, counter-screen for MazEF activator project, biochemical, fluorescence, single-stranded RNase substrate (AID 588502). Type of assay: functional.
In assay [3] the target is T2, Tyrosine-protein phosphatase non-receptor type 7 (Homo sapiens, UniProt P35236).
T2 sequence (P35236 whole entry): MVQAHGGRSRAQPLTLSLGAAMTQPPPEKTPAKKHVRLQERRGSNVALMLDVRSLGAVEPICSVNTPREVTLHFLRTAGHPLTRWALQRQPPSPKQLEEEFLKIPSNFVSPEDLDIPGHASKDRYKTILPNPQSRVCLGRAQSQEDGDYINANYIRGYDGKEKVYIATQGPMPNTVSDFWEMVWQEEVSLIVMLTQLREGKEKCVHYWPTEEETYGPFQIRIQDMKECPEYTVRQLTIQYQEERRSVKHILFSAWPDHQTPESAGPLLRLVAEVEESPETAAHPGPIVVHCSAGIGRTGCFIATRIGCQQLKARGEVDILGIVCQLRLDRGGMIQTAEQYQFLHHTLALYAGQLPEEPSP
It is filed as functional.

The target of assay [4] is T3, Tyrosine-protein phosphatase non-receptor type 22 (Homo sapiens, UniProt Q9Y2R2).
T3 sequence (Q9Y2R2 whole entry): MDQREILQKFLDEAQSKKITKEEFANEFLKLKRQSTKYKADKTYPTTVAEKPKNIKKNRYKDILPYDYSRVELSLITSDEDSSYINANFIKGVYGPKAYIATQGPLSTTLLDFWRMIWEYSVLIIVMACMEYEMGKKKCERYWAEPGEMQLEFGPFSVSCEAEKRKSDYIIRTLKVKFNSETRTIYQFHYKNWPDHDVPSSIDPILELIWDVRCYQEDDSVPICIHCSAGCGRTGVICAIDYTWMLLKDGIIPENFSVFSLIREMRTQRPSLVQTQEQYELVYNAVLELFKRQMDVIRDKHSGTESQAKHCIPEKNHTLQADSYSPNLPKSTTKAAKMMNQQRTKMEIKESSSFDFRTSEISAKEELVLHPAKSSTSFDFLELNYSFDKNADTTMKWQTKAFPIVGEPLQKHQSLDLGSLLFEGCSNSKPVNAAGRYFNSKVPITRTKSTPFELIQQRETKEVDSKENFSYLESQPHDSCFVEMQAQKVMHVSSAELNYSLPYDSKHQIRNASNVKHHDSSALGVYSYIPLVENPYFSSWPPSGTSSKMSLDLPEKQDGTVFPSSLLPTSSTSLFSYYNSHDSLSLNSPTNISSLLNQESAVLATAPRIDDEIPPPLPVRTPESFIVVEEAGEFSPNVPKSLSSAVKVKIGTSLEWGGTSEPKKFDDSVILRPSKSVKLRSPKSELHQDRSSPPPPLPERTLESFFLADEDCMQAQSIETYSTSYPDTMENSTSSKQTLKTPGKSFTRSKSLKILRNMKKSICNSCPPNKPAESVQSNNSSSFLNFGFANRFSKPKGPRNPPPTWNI
Type of assay: functional.

Assay [5] deals with T3, Tyrosine-protein phosphatase non-receptor type 22. It is filed as functional. This is another data set of the same source.
Assay [6] addresses Potassium voltage-gated channel subfamily KQT member 2 (Rattus norvegicus, UniProt O88943). In words: KCNQ2 channel activators, analog series, SAR follow-up, automated patch clamp, KCNQ2-CHO cells (AID 493113). Type of assay: functional. On the technique in general: In patch-clamp work, channel activity is measured electrically.
The target of assay [7] is Large T antigen (Simian virus 40, UniProt P03070). Type of assay: functional, Betapolyomavirus macacae.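 Note: Confirmatory-stage PubChem screen for compounds that inhibit SV40 T antigen.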
Chain of Large T antigen (P03070 whole entry): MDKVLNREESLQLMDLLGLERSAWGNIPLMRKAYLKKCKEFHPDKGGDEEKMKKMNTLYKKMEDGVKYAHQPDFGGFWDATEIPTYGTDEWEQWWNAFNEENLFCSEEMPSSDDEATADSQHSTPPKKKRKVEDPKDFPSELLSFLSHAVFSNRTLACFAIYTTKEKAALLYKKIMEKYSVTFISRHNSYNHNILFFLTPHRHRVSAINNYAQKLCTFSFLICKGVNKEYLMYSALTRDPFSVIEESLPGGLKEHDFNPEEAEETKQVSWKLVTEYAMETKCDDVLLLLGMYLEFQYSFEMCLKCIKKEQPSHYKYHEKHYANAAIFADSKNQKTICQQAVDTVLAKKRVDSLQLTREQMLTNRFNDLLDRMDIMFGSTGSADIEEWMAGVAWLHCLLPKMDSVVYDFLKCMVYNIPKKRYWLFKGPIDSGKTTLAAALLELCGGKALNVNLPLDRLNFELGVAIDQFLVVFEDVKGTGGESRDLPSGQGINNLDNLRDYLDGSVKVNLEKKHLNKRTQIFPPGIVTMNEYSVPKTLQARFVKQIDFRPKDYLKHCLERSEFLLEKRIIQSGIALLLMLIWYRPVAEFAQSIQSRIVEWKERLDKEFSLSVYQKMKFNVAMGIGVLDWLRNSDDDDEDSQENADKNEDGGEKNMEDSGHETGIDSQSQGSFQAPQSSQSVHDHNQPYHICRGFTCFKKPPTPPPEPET
For assay [8], the target named is Intestinal-type alkaline phosphatase (Mus musculus, UniProt P24822). In words: PubChem AID 488785. It is filed as functional.
Chain of Intestinal-type alkaline phosphatase (Mus musculus, UniProt P24822) (P24822 whole entry): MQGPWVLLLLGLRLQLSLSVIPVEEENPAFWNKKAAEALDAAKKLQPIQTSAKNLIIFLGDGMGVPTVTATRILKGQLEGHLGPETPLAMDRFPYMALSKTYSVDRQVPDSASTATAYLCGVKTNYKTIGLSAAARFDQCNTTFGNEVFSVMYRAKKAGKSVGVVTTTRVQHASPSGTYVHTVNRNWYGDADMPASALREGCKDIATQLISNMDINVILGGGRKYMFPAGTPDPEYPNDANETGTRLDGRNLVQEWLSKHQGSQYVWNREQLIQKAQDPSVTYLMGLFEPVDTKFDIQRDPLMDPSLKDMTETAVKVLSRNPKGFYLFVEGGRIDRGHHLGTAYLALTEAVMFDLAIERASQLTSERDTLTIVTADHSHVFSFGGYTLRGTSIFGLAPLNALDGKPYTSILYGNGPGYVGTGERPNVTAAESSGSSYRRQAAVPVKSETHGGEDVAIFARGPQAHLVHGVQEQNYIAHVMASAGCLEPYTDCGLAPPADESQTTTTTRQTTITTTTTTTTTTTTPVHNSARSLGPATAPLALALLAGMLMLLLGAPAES
For assay [9], the target named is Alkaline phosphatase, tissue-nonspecific isozyme (Homo sapiens, UniProt P05186). Put plainly: TNAP enzyme inhibition by screening hits, dose response, selectivity assay for mouse IAP inhibitor project, biochemical, human TNAP, uHTS hits (AID 488906). It is filed as functional.
Chain of Alkaline phosphatase, tissue-nonspecific isozyme (P05186 whole entry): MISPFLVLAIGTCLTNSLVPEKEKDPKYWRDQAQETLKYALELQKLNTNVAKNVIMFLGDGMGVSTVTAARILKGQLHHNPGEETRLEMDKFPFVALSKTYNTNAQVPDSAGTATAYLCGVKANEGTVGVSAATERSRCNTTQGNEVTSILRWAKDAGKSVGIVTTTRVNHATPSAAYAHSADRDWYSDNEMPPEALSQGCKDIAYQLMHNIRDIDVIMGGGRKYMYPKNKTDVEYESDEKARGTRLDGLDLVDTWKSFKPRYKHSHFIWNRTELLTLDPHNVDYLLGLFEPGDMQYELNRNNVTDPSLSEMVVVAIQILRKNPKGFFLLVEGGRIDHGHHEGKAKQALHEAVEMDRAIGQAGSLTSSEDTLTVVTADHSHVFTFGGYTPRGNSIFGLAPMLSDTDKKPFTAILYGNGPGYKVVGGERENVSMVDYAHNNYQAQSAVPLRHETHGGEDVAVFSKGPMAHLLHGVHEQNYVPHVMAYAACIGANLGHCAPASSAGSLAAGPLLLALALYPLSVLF
The target of assay [10] is Intestinal-type alkaline phosphatase (Homo sapiens, UniProt P09923). Put plainly: inhibition of human intestinal alkaline phosphatase – biochemical, dose response (AID 488876). Type of assay: functional.
Chain of Intestinal-type alkaline phosphatase (Homo sapiens, UniProt P09923) (P09923 whole entry): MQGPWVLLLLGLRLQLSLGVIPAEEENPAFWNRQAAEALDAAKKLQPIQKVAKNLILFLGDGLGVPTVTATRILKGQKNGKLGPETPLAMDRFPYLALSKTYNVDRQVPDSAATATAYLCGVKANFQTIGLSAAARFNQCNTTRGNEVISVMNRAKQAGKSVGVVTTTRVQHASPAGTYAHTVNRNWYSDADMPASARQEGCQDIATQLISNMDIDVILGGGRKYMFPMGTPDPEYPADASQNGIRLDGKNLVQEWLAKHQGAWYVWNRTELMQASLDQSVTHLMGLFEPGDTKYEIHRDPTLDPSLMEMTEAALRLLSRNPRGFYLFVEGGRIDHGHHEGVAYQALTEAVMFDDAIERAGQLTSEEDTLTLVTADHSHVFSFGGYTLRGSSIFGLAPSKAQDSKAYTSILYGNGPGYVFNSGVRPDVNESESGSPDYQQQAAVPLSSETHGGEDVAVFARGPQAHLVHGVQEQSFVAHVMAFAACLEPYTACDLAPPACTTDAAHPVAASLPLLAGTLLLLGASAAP

Active and inactive are the calls of the source. A value given as a limit tells only on which side of the number the result lay.

For four molecules, EC50 and IC50 results are on record in ChEMBL document CHEMBL1201862, “PubChem BioAssay data set” (2004).

Broadly, the EC50 is the concentration at which the effect is half-maximal. One may read the IC50 as the concentration that inhibits the measured activity by half.

T1 sequence (P0AE70 whole entry): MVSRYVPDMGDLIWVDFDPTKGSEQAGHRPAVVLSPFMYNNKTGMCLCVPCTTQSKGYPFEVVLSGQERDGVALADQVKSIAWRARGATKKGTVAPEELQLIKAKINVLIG
Chain of Potassium voltage-gated channel subfamily KQT member 2 (O88943 whole entry): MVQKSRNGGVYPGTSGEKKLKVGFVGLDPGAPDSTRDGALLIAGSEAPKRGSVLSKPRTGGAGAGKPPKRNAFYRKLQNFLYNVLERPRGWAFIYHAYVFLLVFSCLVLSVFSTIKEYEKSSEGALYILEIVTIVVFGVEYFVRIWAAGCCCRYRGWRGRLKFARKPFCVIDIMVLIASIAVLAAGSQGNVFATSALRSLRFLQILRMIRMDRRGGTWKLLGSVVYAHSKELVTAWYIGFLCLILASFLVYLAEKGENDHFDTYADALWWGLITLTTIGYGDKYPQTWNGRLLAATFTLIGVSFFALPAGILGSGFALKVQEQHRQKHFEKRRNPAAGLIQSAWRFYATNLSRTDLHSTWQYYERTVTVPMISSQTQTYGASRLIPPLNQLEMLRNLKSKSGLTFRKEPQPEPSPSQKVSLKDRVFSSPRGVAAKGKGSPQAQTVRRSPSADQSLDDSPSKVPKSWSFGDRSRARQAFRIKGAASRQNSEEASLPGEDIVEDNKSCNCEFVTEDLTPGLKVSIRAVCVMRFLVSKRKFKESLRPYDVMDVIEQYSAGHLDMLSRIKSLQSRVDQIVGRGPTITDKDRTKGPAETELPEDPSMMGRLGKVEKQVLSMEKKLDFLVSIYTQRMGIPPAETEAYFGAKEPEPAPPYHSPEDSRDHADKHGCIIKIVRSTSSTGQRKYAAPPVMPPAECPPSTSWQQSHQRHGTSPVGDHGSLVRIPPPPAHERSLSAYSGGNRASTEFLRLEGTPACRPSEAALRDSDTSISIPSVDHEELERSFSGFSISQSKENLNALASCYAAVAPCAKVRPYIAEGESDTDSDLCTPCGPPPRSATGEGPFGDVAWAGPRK

Regarding `Cc1c(C=NNC(=O)c2ccc(Br)cc2)c2ccccn2c1C(=O)c1ccncc1`, the EC50 in assay [1] and in assay [2] was > 99 µM (inactive) throughout.
For the molecule `CCCC(=O)NCCc1cc2ccc(C)c(C)c2nc1O`, the IC50 in assay [3], in assay [4] and in assay [5] was > 79.4 µM (inactive) each time.
For the molecule `Nc1cccc(NC(=O)C2CC3CCC2C3)n1` (stereo not given), the EC50 in assay [6] was 1.81 µM (active).
Take `O=S(=O)(c1ccc(NC(=S)N/N=C/c2ccc(O)c(O)c2)cc1)N1CCOCC1`: the IC50 in [7] is 38.4 µM (active); in assay [8], 2.84 µM (active); in assay [9], 15.1 µM (active); in assay [10], < 0.195 µM (active).
